Measurements as given in US8071367B2, “Selecting, culturing and creating lineage committed hematopoietic stem cells” (Commonwealth Scientific and Industrial Research Organisation, priority 2005, dated 2011).
Where no end group is shown, it is not given here.

Test system: CB CD34+CD38− HSC
Assay: In vitro proliferation of sorted cord blood CD34+CD38− HSC with 6 growth factor stimulation, cells counted after 6 days
Type: cell-based, human
Conditions: 300 per well, Cellgro supplemented with 6 factors, after 6 d, versus 6 factors alone
Experimental: Human cord blood cells were sorted by FACS and plated into cell culture wells (300 cells/well) in the presence of Cellgro supplemented with 6 growth factors G-CSF, […], FL-T3 ligand, (FLT3-L), MGDF (all 100 ng/ml), IL-6 and IL-3 (both 10 ng/ml). In addition, α9β1 antibody (Chemicon), thrombin-cleaved bovine Opn (R & D Systems, Minneapolis, Minn., USA), or Opn inhibiting peptide [SVVYGLR-NH2] (Auspep) (SEQ ID NO:1) were added. All cells were cultured at 37° C. in 5% O2, 10% CO2 and 85% N2. Cells were grown for 6 days prior to counting.
Thrombin-cleaved Opn was prepared by incubating 24 μg bovine Opn in 20 mM Tris-HCl (pH 7.6), 80 mM NaCl, 2 mM CaCl2 and 0.1 units of thrombin (CSL, Parkville, Australia), for 10 min at 37° C.

Substance: SVVYGLR-NH2 [osteopontin peptide]
- cell proliferation: significant inhibition of cell proliferation
